# Reference: patent US10774097B2, “Boron compounds as inhibitors of lipoxygenase and the lipoxygenase pathway, and preparation and use thereof” (UNIVERSITÄT LEIPZIG, priority 2015, dated 2020)
# Where two headings read alike, the source gives them in different places.
# What was measured:
# [1] = Solubility tests in ethanol and DMSO; assay type: physicochemical; settings: solvent added until clear solution; for solubility: organic solvent or mixture, thermodynamic from solid
# Procedure: Solubility tests in ethanol and DMSO were carried out to determine the solubility. The amount of solvent required to obtain a clear solution was added to 4 mg of the compounds in an Eppendorf tube. The concentration of the solution was then determined on the basis of the mass of the compounds and the amount of solvent.
# [2] = tested on: primary fibroblasts (MRC-5); assay: Cytotoxicity MTT assay, MRC-5; assay type: cell-based, human
# Procedure: (§1) In order to determine the cytotoxicity towards various cancer cell lines, MTT and crystal violet (CV) assays were carried out. The MTT essay takes place as specified by T. Mosmann [T. Mosmann, J. Immunol. Methods, 1983, 65, 55], and the CV test takes place as specified by D. A. Flick et al. [D. A. Flick, G. E. Gifford, J. Immunol. Methods, 1984, 68, 167].
# (§2) In these tests, the percentage of dead cells was analysed on the basis of the concentration of the inhibitors. The obtained IC50 value indicates the concentration of a particular inhibitor at which 50% of the analysed cells die off.
# (§3) The proportion of living cells was determined by the MTT assay (3-(4,5-dimethylthiazolyl-2)-2,5-diphenyltetrazoliumbromide) and the crystal violet (CV) assay. In the MTT assay, the presence of NADH and NADPH is established. These two compounds are characteristic metabolism products in a functioning respiratory chain. NADH and NADPH reduce the MTT dye, thus leading to a change in colour, which can be measured and is thus directly proportional to the number of living cells.
# (§4) Three skin cancer cell lines (A375, B16, B16F10) and three colon cancer cell lines (CT26CL25, HCT116, SW480) were analysed. Primary fibroblasts from human lung tissue (MRC-5) were used as an example of healthy cells and thus as a negative control.
# (§5) The top value for each cell represents the IC50 value in the MTT assay, and the bottom value represents the IC50 value in the CV assay (crystal violet).
# [3] = tested on: A375; assay: Cytotoxicity MTT assay, A375; assay type: cell-based
# Procedure: as §1, §2, §3, §4, §5
# [4] = tested on: A375; assay: Cytotoxicity crystal violet (CV) assay, A375; assay type: cell-based; settings: CV assay (bottom value)
# Procedure: as §1, §2
# (§6) Meanwhile, in the crystal violet assay, the crystal violet dye can only diffuse through the perforated cell membranes of dead cells. In this case, the number of dyed cells represents the number of dead cells.
# as §4, §5
# [5] = tested on: B16; assay: Cytotoxicity MTT assay, B16; assay type: cell-based; settings: MTT assay (top value)
# Procedure: as §1, §2, §3, §4, §5
# [6] = tested on: B16; assay: Cytotoxicity crystal violet (CV) assay, B16; assay type: cell-based; settings: CV assay (bottom value)
# Procedure: as §1, §2, §6, §4, §5
# [7] = tested on: HCT116; assay: Cytotoxicity MTT assay, HCT116; assay type: cell-based; settings: MTT assay (top value)
# Procedure: as §1, §2, §3, §4, §5
# [8] = tested on: HCT116; assay: Cytotoxicity crystal violet (CV) assay, HCT116; assay type: cell-based; settings: CV assay (bottom value)
# Procedure: as §1, §2, §6, §4, §5
# [9] = tested on: CT26CL25; assay: Cytotoxicity MTT assay, CT26CL25; assay type: cell-based; settings: MTT assay (top value)
# Procedure: as §1, §2, §3, §4, §5
# [10] = tested on: CT26CL25; assay: Cytotoxicity crystal violet (CV) assay, CT26CL25; assay type: cell-based; settings: CV assay (bottom value)
# Procedure: as §1, §2, §6, §4, §5
# [11] = tested on: SW480; assay: Cytotoxicity MTT assay, SW480; assay type: cell-based; settings: MTT assay (top value)
# Procedure: as §1, §2, §3, §4, §5
# [12] = tested on: SW480; assay: Cytotoxicity crystal violet (CV) assay, SW480; assay type: cell-based; settings: CV assay (bottom value)
# Procedure: as §1, §2, §6, §4, §5
# [13] = molecular target: T1, 5-LOX (Homo sapiens, UniProt P09917); assay: Inhibition test: 5-LOX activity in intact polymorphonuclear leukocytes (arachidonic acid conversion, HPLC); assay type: cell-based; settings: 5-LOX-FLAP enzyme system, 15 min at 37° C., read-out: IC50 value (at concentration)
# T1 construct: endogenous in cells; host or cells: intact polymorphonuclear leukocytes isolated from blood
# T1 sequence (P09917 1-674): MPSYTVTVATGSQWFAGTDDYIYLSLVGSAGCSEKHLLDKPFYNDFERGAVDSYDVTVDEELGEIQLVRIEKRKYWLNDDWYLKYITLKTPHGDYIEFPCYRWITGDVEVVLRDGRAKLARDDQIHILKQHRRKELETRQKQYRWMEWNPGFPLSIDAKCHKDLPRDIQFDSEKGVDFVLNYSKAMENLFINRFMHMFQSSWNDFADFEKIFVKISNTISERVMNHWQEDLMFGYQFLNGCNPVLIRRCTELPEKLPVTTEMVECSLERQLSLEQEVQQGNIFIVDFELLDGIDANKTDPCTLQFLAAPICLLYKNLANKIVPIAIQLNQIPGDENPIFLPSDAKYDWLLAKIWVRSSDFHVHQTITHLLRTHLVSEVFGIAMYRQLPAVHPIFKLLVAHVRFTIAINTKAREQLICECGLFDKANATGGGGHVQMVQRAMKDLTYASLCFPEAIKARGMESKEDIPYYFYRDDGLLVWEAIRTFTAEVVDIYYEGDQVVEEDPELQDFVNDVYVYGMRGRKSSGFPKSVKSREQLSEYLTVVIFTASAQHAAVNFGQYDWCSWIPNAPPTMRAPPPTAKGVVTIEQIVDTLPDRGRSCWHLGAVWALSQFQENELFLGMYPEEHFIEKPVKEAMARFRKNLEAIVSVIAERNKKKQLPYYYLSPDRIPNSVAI
# Procedure: The 5-LOX activity of the cells was established on the basis of the concentration of inhibitor.
# In this process, intact polymorphonuclear leukocytes were isolated from blood as specified in the known literature [C. Greiner et al., British Journal of Pharmacology, 2011, 164, 781-793]. The cells were grown on cell sheets until a confluence of 95% was reached, i.e. 95% of the cell sheets was covered with cells. Each cell sheet was then treated with 10 μl of a solution of the inhibitor at concentrations of 0.05 μM, 0.1 μM, 0.5 μM, 1 μM, 5 μM, 10 μM, 50 μM and 100 μM at 37° C. for 15 minutes. Each cell sheet was then treated with an arachidonic acid solution for 10 minutes. 10 μl of a 1:1 mixture of 2 mM of arachidonic acid and 250 μM of A23187 Ca^2+-ionophore solution in ethanol was used for this.
# Conversion of a small amount of arachidonic acid is evidence of a strong inhibiting effect.
# [14] = tested on: various cancer cell lines; assay: Cytotoxicity tests on cancer cell lines (summary in words); settings: comparison with phenyl-based compounds
# Procedure: as §1, §2, §4
# [15] = MTT assay (top value), read-out: IC50 A375
Compound,IC50 [9] [µM],IC50 [10] [µM],Solubility in DMSO ([1]; DMSO) [mM],Solubility in EtOH ([1]; ethanol) [mM],IC50 [13] [µM],"IC50 [3, 15] [µM]",IC50 [4] [µM],IC50 [5] [µM],IC50 [6] [µM],IC50 [7] [µM],IC50 [8] [µM],IC50 [12] [µM],cytotoxicity towards cancer cell lines (in words) [14],IC50 [11] [µM],also measured
"CCCCCC(O)c1cccc(OCc2ccc3ccccc3n2)c1 (stereo not drawn) [Rev-5901, reference compound]",28.1,> 50,,,,,,,,,,,,,"solubility ([1]; DMSO, read-out: Solubility in DMSO): 29.8 mM; solubility ([1]; ethanol, read-out: Solubility in EtOH): 29.7 mM; IC50 ([2]; Homo sapiens, MRC5, MTT assay (top value), healthy cells, read-out: IC50 MRC-5): 70.1 µM; IC50 ([2]; Homo sapiens, MRC5, read-out: IC50 value for healthy cells (MRC-5)): 70 µM; IC50 ([3]; Homo sapiens, A-375, MTT assay (top value), read-out: IC50 A375): 25 µM; IC50 ([3]; Homo sapiens, A-375, depending on the method of analysis used (MTT/CV), read-out: IC50 values towards melanoma cancer cell line A375): 25 to 50 µM; IC50 ([4]; Homo sapiens, A-375): 46.5 µM; IC50 ([5]; Mus musculus, B16): 27.6 µM; IC50 ([6]; Mus musculus, B16): 45 µM; IC50 ([7]; Homo sapiens, HCT-116): 50 µM; IC50 ([8]; Homo sapiens, HCT-116): 50 µM; IC50 ([11]; Homo sapiens, SW480): 50 µM; IC50 ([12]; Homo sapiens, SW480): > 50 µM"
"1-(Quinolin-2-ylmethyl)thio-1,7-dicarba-closo-dodecaborane(12) [Comparative Example 2]",> 50,> 50,600,67,5.8,30,34.8,> 50,> 50,> 50,> 50,> 50,insufficient cytotoxicity,,
"1-(7-Thiomethylquinolin-2-yl-1,7-dicarba-closo-dodecaboran(12)yl)-hexan-1-ol [Embodiment 5]",46,50,953.9,238.5,2.5,,30.5,50,> 50,45,> 50,> 50,,33.1,selectiveness between healthy cells and cancer cells ([2]; IC50 for healthy cells (MRC-5) divided by IC50 for cancer cells (A375)): 10.2; IC50 ([2]; read-out: IC50 value for healthy cells (MRC-5)): 82 µM; IC50 ([3]; read-out: IC50 value for A375 cancer cells): 8 µM
"1-Quinolin-2-ylmethoxy-1,12-dicarba-closo-dodecaborane(12) [Comparative Example 3]",35,50,208.3,86.8,1.4,8.8,26.9,45.7,46,,> 50,,,29,"IC50 ([2]; single value in cell, unit inferred, top value = MTT assay, read-out: IC50 MRC-5): > 100 µM"
"1-((7-Quinolin-2-ylmethoxy)-1,7-dicarba-closo-dodecaboran(12)yl)-hexan-1-ol [Embodiment 3]",,,208.3,86.8,1.4,,,,,,,,considerably higher cytotoxicity,,
"1-(Quinolin-2-ylmethoxy)-1,7-dicarba-closo-dodecaborane(12) [Comparative Example 1]",> 50,> 50,432,72,2.3,50,> 50,47.4,47.6,> 50,,> 50,insufficient cytotoxicity,> 50,
